ChEMBL document CHEMBL1212939, “Structure and relative potency of several karlotoxins from Karlodinium veneficum” (J Nat Prod, 2010)

Assay: Toxicity in human erythrocytes assessed as hemolytic activity after 24 hrs
Format: cell-based, Erythrocyte

SMILES | EC50 at 24 h
C=C/C=C/CCCCCCCCCC/C=C/C(O)C(O)C1OC(C(O)C(O)C(=C)CCC(O)C2OC(CC(O)C(O)C(C)CCCC(O)C(O)C(O)C(C)CCC(O)C(O)C(C)CC(O)CCCC(O)CCCC(O)/C=C/CC(O)CO)C(O)C(O)C2O)CC(O)C1O (stereo not given) | 63 nM
C=C/C=C/CCCCCCCCC/C=C/C(O)C(O)C1OC(C(O)C(O)C(=C)CCC(O)C2OC(CC(O)C(O)C(C)CCCC(O)C(O)C(O)C(C)CCC(O)C(O)C(C)CC(O)CCCC(O)CCCC(O)/C=C/CC(O)CO)C(O)C(O)C2O)CC(O)C1O (stereo not given) | 200 nM
C=C(CCC(O)C1OC(CC(O)C(O)C(C)CCCC(O)C(O)C(O)C(C)CCC(O)C(O)C(C)CC(O)CCCC(O)CCCC(O)/C=C/CC(O)CO)C(O)C(O)C1O)C(O)C(O)C1CC(O)C(O)C(C(O)C(O)/C=C/CCCCCCCCC/C=C/C=C/Cl)O1 (stereo not given) | 110 nM
C=C(CCC(O)C1OC(CC(O)C(O)C(C)CCCC(O)C(O)C(O)C(C)CCC(O)C(O)C(C)CC(O)CCCC(O)CCCC(O)/C=C/CC(O)CO)C(O)C(O)C1O)C(O)C(O)C1CC(O)C(O)C(C(O)C(O)/C=C/CCCCCCCCCC/C=C/C=C/Cl)O1 (stereo not given) | 56 nM
C=C/C=C/CCCCCCCCCC/C=C/C(O)C(O)C1OC(C(O)C(O)C(=C)CCC(O)C2OC(CC(O)C(O)C(C)CCCC(O)C(O)C(O)C(C)CCC(O)C(O)C(C)CC(O)CCCC(CCCC(O)/C=C/CC(O)CO)OS(=O)(=O)O)C(O)C(O)C2O)CC(O)C1O (stereo not given) | 300 nM
